Source: patent publication US20150217046A1, “DOSING REGIMENS FOR SUBCUTANEOUSLY INFUSIBLE ACIDIC COMPOSITIONS” (SynAgile Corporation, priority 2012, published 2015)

Assays:
[1] = Rate of hydrolysis of LD esters in solution; type: physicochemical
Experimental: At a particular temperature and pH, the LDEs formed of LD and of different alcohols are hydrolyzed prior to their infusion at different rates. […] The rate of hydrolysis of LDE salts also depends on the anion, i.e., on the acid forming the LDE salt. LDE is hydrolyzed more rapidly when carboxylate anions and/or carboxylic acids replace the chloride anion or HCl. The rate of hydrolysis of the salt formed of LDEE and acetic acid can be about 3 times faster at about pH 4.5 at about 23° C. than that of LDEE.HCl, the salt formed of LDEE and HCl. The rate of hydrolysis at a particular pH and temperature can therefore depend on the buffering agent, e.g., citric acid and/or citrate anions, becoming faster when their concentration is elevated. Typically, the concentration of the buffering ions, i.e., the combined concentrations of citrates and citric acid, is between about 5 mM and 100 mM, for example between about 10 mM and 50 mM. The rate of hydrolysis can increase, for example, when the buffering citric acid-citrate concentration is increased.
In aqueous LDE salt pharmaceutical compositions, the hydrolysis rates generally decrease as the pH decreases, and the shelf life of the LDE salt consequently increases, unless the pH is about 1.7±0.5 or less. […] In acidic pharmaceutical compositions the amines of the LDEs are protonated, making the LDEs cations. […] The rates of hydrolysis generally increase with temperature, and may at least about double or about triple for each 10° C. increase, correspondingly decreasing upon cooling.

[2] = Infusion site reactions, intermittent and continuous subcutaneous infusion of 100 mg/mL LDEE pH 4.5 (Example 3); type: in vivo, minipigs
Description: There were four treatment groups:
A: Six infusions, intermittent with ibuprofen.
B: Six infusions, intermittent with no ibuprofen.
C: Six infusions, continuous infusion with ibuprofen.
D: Six infusions, continuous infusion with no ibuprofen.

[3] = Infusion site reactions, subcutaneous infusion of 50 mg/mL LDEE pH 3.7 (Example 6); conditions: for # of Infusion Site Reactions/# of Infusion Sites: pH 3.7, 50 mg/mL
Experimental: Over the course of two consecutive days, four 6-12 week old juvenile minipigs weighing about 6-13 kg were each administered 18 subcutaneous infusions of LDEE pharmaceutical compositions at pH 3.7 (LDEE.HCl, pH adjusted with trisodium citrate). […] Intermittent and continuously infused doses of 137.5-140 mg (0.61-0.62 millimoles) were administered over 8 hours, and intermittent doses of 275 mg (1.22 millimoles) were administered over 16 hours (calculated mass of LDEE in its freebase form).
Each infusion site was spaced a minimum of 2 inches (5 cm) apart from any other infusion site. All minipigs received seven doses of oral carbidopa, 25 mg/dose: one dose at 12 hours prior to the infusion on the first day; 3 doses on the first day of infusion; and 3 doses on the second day of infusion.

[4] = Plasma LDEE concentrations after 8 hours of subcutaneous infusion (Example 8); parameters: species or system minipigs; conditions: minipig, in vivo
Experimental: In addition to measuring the LD plasma concentrations as described in Example 6, also the plasma LDEE concentrations were measured.

For `CCOC(=O)[C@@H](N)Cc1ccc(O)c(O)c1` [LDEE, levodopa ethyl ester], the “rate of hydrolysis relative to LDME” value ([1]; near pH 7, about 37° C.) was “about four times faster”, the time to hydrolysis ([1]; neutral pH) was “within hours or less” and the “diameter of firm swelling (infusion site reaction)” value ([2]; 100 mg/mL (0.44 M) LDEE pH 4.5, 281 mg over 16 h s.c.) was 0.5-1.5 cm. For the same compound, the “# of Infusion Site Reactions/# of Infusion Sites” value ([2]; 100 mg/mL (0.44 M) LDEE pH 4.5, 281 mg over 16 h s.c., Treatment A intermittent with ibuprofen, 3 Days Post-Infusion) was 2/6, the “# of Infusion Site Reactions/# of Infusion Sites” value ([2]; 100 mg/mL (0.44 M) LDEE pH 4.5, 281 mg over 16 h s.c., Treatment A intermittent with ibuprofen, 10 Days Post-Infusion) was 5/6 and the “# of Infusion Site Reactions/# of Infusion Sites” value ([2]; 100 mg/mL (0.44 M) LDEE pH 4.5, 281 mg over 16 h s.c., Treatment A intermittent with ibuprofen, 15 Days Post-Infusion) was 0/6. The “# of Infusion Site Reactions/# of Infusion Sites” value ([2]; 100 mg/mL (0.44 M) LDEE pH 4.5, 281 mg over 16 h s.c., Treatment A intermittent with ibuprofen, Immediately Post-Infusion) was 0/6, the “# of Infusion Site Reactions/# of Infusion Sites” value ([2]; 100 mg/mL (0.44 M) LDEE pH 4.5, 281 mg over 16 h s.c., Treatment B intermittent, no ibuprofen, 3 Days Post-Infusion) was 1/6 and the “# of Infusion Site Reactions/# of Infusion Sites” value ([2]; 100 mg/mL (0.44 M) LDEE pH 4.5, 281 mg over 16 h s.c., Treatment B intermittent, no ibuprofen, 10 Days Post-Infusion) was 1/6. The “# of Infusion Site Reactions/# of Infusion Sites” value ([2]; 100 mg/mL (0.44 M) LDEE pH 4.5, 281 mg over 16 h s.c., Treatment B intermittent, no ibuprofen, 15 Days Post-Infusion) was 0/6, the “# of Infusion Site Reactions/# of Infusion Sites” value ([2]; 100 mg/mL (0.44 M) LDEE pH 4.5, 281 mg over 16 h s.c., Treatment B intermittent, no ibuprofen, Immediately Post-Infusion) was 0/6 and the “# of Infusion Site Reactions/# of Infusion Sites” value ([2]; 100 mg/mL (0.44 M) LDEE pH 4.5, 281 mg over 16 h s.c., Treatment C continuous with ibuprofen, 3 Days Post-Infusion) was 2/6. The “# of Infusion Site Reactions/# of Infusion Sites” value ([2]; 100 mg/mL (0.44 M) LDEE pH 4.5, 281 mg over 16 h s.c., Treatment C continuous with ibuprofen, 10 Days Post-Infusion) was 6/6, the “# of Infusion Site Reactions/# of Infusion Sites” value ([2]; 100 mg/mL (0.44 M) LDEE pH 4.5, 281 mg over 16 h s.c., Treatment C continuous with ibuprofen, 15 Days Post-Infusion) was 0/6 and the “# of Infusion Site Reactions/# of Infusion Sites” value ([2]; 100 mg/mL (0.44 M) LDEE pH 4.5, 281 mg over 16 h s.c., Treatment C continuous with ibuprofen, Immediately Post-Infusion) was 0/6. For the same compound, the “# of Infusion Site Reactions/# of Infusion Sites” value ([2]; 100 mg/mL (0.44 M) LDEE pH 4.5, 281 mg over 16 h s.c., Treatment D continuous, no ibuprofen, 3 Days Post-Infusion) was 4/6, the “# of Infusion Site Reactions/# of Infusion Sites” value ([2]; 100 mg/mL (0.44 M) LDEE pH 4.5, 281 mg over 16 h s.c., Treatment D continuous, no ibuprofen, 10 Days Post-Infusion) was 1/6 and the “# of Infusion Site Reactions/# of Infusion Sites” value ([2]; 100 mg/mL (0.44 M) LDEE pH 4.5, 281 mg over 16 h s.c., Treatment D continuous, no ibuprofen, 15 Days Post-Infusion) was 0/6. For the same compound, the “# of Infusion Site Reactions/# of Infusion Sites” value ([2]; 100 mg/mL (0.44 M) LDEE pH 4.5, 281 mg over 16 h s.c., Treatment D continuous, no ibuprofen, Immediately Post-Infusion) was 0/6, the “infusion site reactions, all treatments pooled” value ([2]; 100 mg/mL (0.44 M) LDEE pH 4.5, 14-15 days post-infusion) was 0 out of 24 and the granuloma formation ([2]; 281 mg LDEE in 100 mg/mL (0.44 M), pH 4.5, 24 out of 24 infusions) was “no granuloma formation”. The “tolerability of infused volume per site” value ([3]; 50 mg/mL LDEE pH 3.7, about 0.34 mL per hour per site) was “well tolerated”, the “# of Infusion Site Reactions/# of Infusion Sites” value ([3]; 137.5 mg, 8 hrs, Intermittent s.c., 0 hrs) was 0/8 and the “# of Infusion Site Reactions/# of Infusion Sites” value ([3]; 137.5 mg, 8 hrs, Intermittent s.c., 12 hrs) was 0/8. For the same compound, the “# of Infusion Site Reactions/# of Infusion Sites” value ([3]; 137.5 mg, 8 hrs, Intermittent s.c., 24 hrs) was 0/8, the “# of Infusion Site Reactions/# of Infusion Sites” value ([3]; 137.5 mg, 8 hrs, Intermittent s.c., 3 days) was 3/8 and the “# of Infusion Site Reactions/# of Infusion Sites” value ([3]; 140 mg, 8 hrs, Continuous s.c., 0 hrs) was 0/4. The “# of Infusion Site Reactions/# of Infusion Sites” value ([3]; 140 mg, 8 hrs, Continuous s.c., 12 hrs) was 0/4, the “# of Infusion Site Reactions/# of Infusion Sites” value ([3]; 140 mg, 8 hrs, Continuous s.c., 24 hrs) was 0/4 and the “# of Infusion Site Reactions/# of Infusion Sites” value ([3]; 140 mg, 8 hrs, Continuous s.c., 3 days) was 0/4. For the same compound, the “# of Infusion Site Reactions/# of Infusion Sites” value ([3]; 275 mg, 16 hrs, Intermittent s.c., 0 hrs) was 0/6, the “# of Infusion Site Reactions/# of Infusion Sites” value ([3]; 275 mg, 16 hrs, Intermittent s.c., 12 hrs) was 0/6 and the “# of Infusion Site Reactions/# of Infusion Sites” value ([3]; 275 mg, 16 hrs, Intermittent s.c., 24 hrs) was 1/6. The “# of Infusion Site Reactions/# of Infusion Sites” value ([3]; 275 mg, 16 hrs, Intermittent s.c., 3 days) was 1/6 and the “Plasma LDEE, 480 minutes after start of infusion” value [4] was 6.9 ng/mL.
